Where two headings read alike, the source gives them in different places.
System: HCV pseudoparticles (genotype 1a HCV E1 and E2 envelope, H77C isolate)
Experiment: HCV pseudoparticle infection assay (luciferase reporter, Huh7 cells)
Assay type: cell-based, HCV genotype 1a
Settings: Hepatitis C virus, Huh-7, 48 h, read-out: EC50 (1a, nM), genotype 1a HCV pseudoparticles, Huh7 cells, luciferase 2 days after infection

**Q.** Which EC50 (class symbol) does the source give for `N=C(N)N1CCCN(C(=O)c2ccc(Nc3nc(NC4(c5ccc(Cl)cc5)CC4)nc(OCC(F)(F)F)n3)cc2)CC1` [Compound 1001, 4-(4-(4-(1-(4-chlorophenyl)cyclopropylamino)-6-(2,2,2-trifluoroethoxy)-1,3,5-triazin-2-ylamino)benzoyl)-1,4-diazepane-1-carboximidamide] here?
**A.** 0.01 to 10 nM

**Q.** `N=C(N)NC[C@H](NC(=O)c1ccc(Nc2nc(NC3(c4ccc(Cl)cc4)CC3)nc(OCC(F)(F)F)n2)cc1)C(=O)O` [Compound 1015, (S)-2-(4-(4-(1-(4-chlorophenyl)cyclopropylamino)-6-(2,2,2-trifluoroethoxy)-1,3,5-triazin-2-ylamino)benzamido)-3-guanidinopropanoic acid] was tested. Which EC50 (class symbol) did it give?
**A.** 0.01 to 10 nM

**Q.** For `N=C(N)NCCC[C@@H](NC(=O)c1ccc(Nc2nc(NC3(c4ccc(Cl)cc4)CC3)nc(OCC(F)(F)F)n2)cc1)C(=O)O` [Compound 1002, (R)-2-(4-(4-(1-(4-chlorophenyl)cyclopropylamino)-6-(2,2,2-trifluoroethoxy)-1,3,5-triazin-2-ylamino)benzamido)-5-guanidinopentanoic acid], which EC50 (class symbol) is on record?
**A.** 0.01 to 10 nM

**Q.** `[2H]C([2H])(Oc1nc(Nc2ccc(C(=O)N[C@@H](CCCNC(=N)N)C(N)=O)cc2)nc(NC2(c3ccc(Cl)cc3)CC2)n1)C(F)(F)F` [Compound 1028] was tested. Which EC50 (class symbol) did it give?
**A.** 0.01 to 10 nM

**Q.** `N=C1NCCN1C(=O)c1ccc(Nc2nc(NC3(c4ccc(Cl)cc4)CC3)nc(OCC(F)(F)F)n2)cc1` [Compound 1014, (4-(4-(1-(4-chlorophenyl)cyclopropylamino)-6-(2,2,2-trifluoroethoxy)-1,3,5-triazin-2-ylamino)phenyl)(2-iminoimidazolidin-1-yl)methanone] was tested. Which EC50 (class symbol) did it give?
**A.** 0.01 to 10 nM

**Q.** And the EC50 (numeric value)?
**A.** 3.01 nM

**Q.** What does the source list for `N=C(N)NCCC[C@H](NC(=O)c1ccc(Nc2nc(NC3(c4ccc(Cl)cc4)CC3)nc(OCC(F)(F)F)n2)cc1)C(=O)O` [Compound 1003, (S)-2-(4-(4-(1-(4-chlorophenyl)cyclopropylamino)-6-(2,2,2-trifluoroethoxy)-1,3,5-triazin-2-ylamino)benzamido)-5-guanidinopentanoic acid]?
**A.** EC50 (class symbol): 0.01 to 10 nM; EC50 (numeric value): 0.711 nM

**Q.** For `N#C/N=C(\N1CCCCC1)N1CCN(C(=O)c2ccc(Nc3nc(NC4(c5ccc(Cl)cc5)CC4)nc(OCC(F)(F)F)n3)cc2)CC1` [Compound 1013, N-((4-(4-(4-(1-(4-chlorophenyl)cyclopropylamino)-6-(2,2,2-trifluoroethoxy)-1,3,5-triazin-2-ylamino)benzoyl)piperazin-1-yl)(piperidin-1-yl)methylene)cyanamide], which EC50 (class symbol) is on record?
**A.** 0.01 to 10 nM

**Q.** Which results are given for `N#C/N=C(\NC1CCCC1)N1CCN(C(=O)c2ccc(Nc3nc(NC4(c5ccc(Cl)cc5)CC4)nc(OCC(F)(F)F)n3)cc2)CC1` [Compound 1009, 4-(4-(4-(1-(4-chlorophenyl)cyclopropylamino)-6-(2,2,2-trifluoroethoxy)-1,3,5-triazin-2-ylamino)benzoyl)-N′-cyano-N-cyclopentylpiperazine-1-carboximidamide]?
**A.** EC50 (class symbol): 0.01 to 10 nM; EC50 (numeric value): 3.57 nM

**Q.** With `N=C(N)NS(=O)(=O)c1ccc(NC(=O)c2ccc(Nc3nc(NCc4ccc(Cl)cc4)nc(OCc4ccccc4)n3)cc2)cc1` [Compound 1022] as the compound, how does the EC50 (class symbol) read?
**A.** 10 to 1000 nM

**Q.** What about the EC50 (numeric value) of the same compound?
**A.** 62.5 nM

**Q.** For `N=C(N)NCCCCNC(=O)c1ccc(Nc2nc(NCc3ccc(Cl)cc3)nc(OCC(F)(F)F)n2)cc1` [Compound 1005, 4-(4-(4-chlorobenzylamino)-6-(2,2,2-trifluoroethoxy)-1,3,5-triazin-2-ylamino)-N-(4-guanidinobutyl)benzamide], which EC50 (class symbol) is on record?
**A.** 10 to 1000 nM

**Q.** And the EC50 (numeric value)?
**A.** 29.5 nM

**Q.** How did the EC50 (class symbol) turn out when `N=C(N)NS(=O)(=O)c1ccc(NC(=O)c2cccc(Nc3nc(NCc4ccc(Cl)cc4)nc(OCc4ccccc4)n3)c2)cc1` [Compound 1023] was run?
**A.** 10 to 1000 nM

**Q.** With `N=C(N)N1CCN(C(=O)c2cccc(Nc3nc(NCc4ccc(Cl)cc4)nc(OCc4ccccc4)n3)c2)CC1` [Compound 1027] as the compound, how does the EC50 (class symbol) read?
**A.** 10 to 1000 nM

**Q.** With `N=C(N)N1CCCN(C(=O)c2ccc(Nc3nc(NCc4ccc(Cl)cc4)nc(OCC(F)(F)F)n3)cc2)CC1` [Compound 1004, 4-(4-(4-(4-chlorobenzylamino)-6-(2,2,2-trifluoroethoxy)-1,3,5-triazin-2-ylamino)benzoyl)-1,4-diazepane-1-carboximidamide] as the compound, how does the EC50 (class symbol) read?
**A.** 10 to 1000 nM

**Q.** With `N=C(N)NCCC[C@H](NC(=O)c1ccc(Nc2nc(NC3(c4ccc(Cl)cc4)CC3)nc(OCC(F)(F)F)n2)cc1)C(N)=O` [Compound 1016, (S)—N-(1-amino-5-guanidino-1-oxopentan-2-yl)-4-(4-(1-(4-chlorophenyl)cyclopropylamino)-6-(2,2,2-trifluoroethoxy)-1,3,5-triazin-2-ylamino)benzamide] as the compound, how does the EC50 (class symbol) read?
**A.** 0.01 to 10 nM

**Q.** And the EC50 (numeric value)?
**A.** 0.352 nM

**Q.** `N=C(N)NCCC[C@H](NC(=O)c1ccc(Nc2nc(NCc3ccc(Cl)cc3)nc(OCc3ccccc3)n2)cc1)C(=O)N[C@@H](CCC(N)=O)C(=O)O` [Compound 1019] was tested. Which EC50 (class symbol) did it give?
**A.** 10 to 1000 nM

**Q.** `N=C(N)N1CCCN(C(=O)c2cccc(Nc3nc(NCc4ccc(Cl)cc4)nc(OCc4ccccc4)n3)c2)CC1` [Compound 1018] was tested. Which EC50 (class symbol) did it give?
**A.** 10 to 1000 nM

**Q.** With `[2H]C([2H])(Oc1nc(Nc2ccc(C(=O)N[C@@H](CCCNC(=N)N)C(=O)N[C@@H](CC(N)=O)C(N)=O)cc2)nc(NC2(c3ccc(Cl)cc3)CC2)n1)C(F)(F)F` [Compound 1031] as the compound, how does the EC50 (class symbol) read?
**A.** 0.01 to 10 nM

**Q.** How did the EC50 (class symbol) turn out when `N=C(N)N1CCN(C(=O)c2ccc(Nc3nc(NCc4ccc(Cl)cc4)nc(OCc4ccccc4)n3)cc2)CC1` [Compound 1026] was run?
**A.** 10 to 1000 nM

**Q.** How did the EC50 (class symbol) turn out when `NC(=O)/N=C(\N1CCC1)N1CCN(C(=O)c2ccc(Nc3nc(NC4(c5ccc(Cl)cc5)CC4)nc(OCC(F)(F)F)n3)cc2)CC1` [Compound 1010, 1-(azetidin-1-yl(4-(4-(4-(1-(4-chlorophenyl)cyclopropylamino)-6-(2,2,2-trifluoroethoxy)-1,3,5-triazin-2-ylamino)benzoyl)piperazin-1-yl)methylene)urea] was run?
**A.** 0.01 to 10 nM

**Q.** How did the EC50 (class symbol) turn out when `N=C(N)NCCCCNC(=O)c1cccc(Nc2nc(NCc3ccc(Cl)cc3)nc(OCc3ccccc3)n2)c1` [Compound 1025] was run?
**A.** > 1000 nM

**Q.** And the EC50 (numeric value)?
**A.** 4480 nM

**Q.** For `[2H]C([2H])(Oc1nc(Nc2ccc(C(=O)N[C@@H](CCCNC(=N)N)C(=O)NCC(N)=O)cc2)nc(NC2(c3ccc(Cl)cc3)CC2)n1)C(F)(F)F` [Compound 1030], which EC50 (class symbol) is on record?
**A.** 0.01 to 10 nM

**Q.** How did the EC50 (class symbol) turn out when `[2H]C([2H])(Oc1nc(Nc2ccc(C(=O)N[C@H](CCCNC(=N)N)C(=O)N[C@@H](Cc3ccccc3)C(=O)O)cc2)nc(NC2(c3ccc(Cl)cc3)CC2)n1)C(F)(F)F` [Compound 1029] was run?
**A.** 0.01 to 10 nM

**Q.** `N#C/N=C(\N1CCC1)N1CCN(C(=O)c2ccc(Nc3nc(NC4(c5ccc(Cl)cc5)CC4)nc(OCC(F)(F)F)n3)cc2)CC1` [Compound 1011, N-(azetidin-1-yl(4-(4-(4-(1-(4-chlorophenyl)cyclopropylamino)-6-(2,2,2-trifluoroethoxy)-1,3,5-triazin-2-ylamino)benzoyl)piperazin-1-yl)methylene)cyanamide] was tested. Which EC50 (class symbol) did it give?
**A.** 0.01 to 10 nM

**Q.** With `N=C(N)NCCCCNC(=O)c1ccc(Nc2nc(NCc3ccc(Cl)cc3)nc(OCc3ccccc3)n2)cc1` [Compound 1024] as the compound, how does the EC50 (class symbol) read?
**A.** 10 to 1000 nM

**Q.** How did the EC50 (class symbol) turn out when `NC(=O)/N=C(\NC1CCCC1)N1CCN(C(=O)c2ccc(Nc3nc(NC4(c5ccc(Cl)cc5)CC4)nc(OCC(F)(F)F)n3)cc2)CC1` [Compound 1008, N′-carbamoyl-4-(4-(4-(1-(4-chlorophenyl)cyclopropylamino)-6-(2,2,2-trifluoroethoxy)-1,3,5-triazin-2-ylamino)benzoyl)-N-cyclopentylpiperazine-1-carboximidamide] was run?
**A.** 0.01 to 10 nM

**Q.** Which EC50 (class symbol) does the source give for `N=C(N)NCCC[C@H](NC(=O)c1ccc(Nc2nc(NCc3ccc(Cl)cc3)nc(OCC(F)(F)F)n2)cc1)C(=O)O` [Compound 1007, (S)-2-(4-(4-(4-chlorobenzylamino)-6-(2,2,2-trifluoroethoxy)-1,3,5-triazin-2-ylamino)benzamido)-5-guanidinopentanoic acid] here?
**A.** 10 to 1000 nM

**Q.** How did the EC50 (class symbol) turn out when `N=C(N)NCCC[C@@H](NC(=O)c1ccc(Nc2nc(NCc3ccc(Cl)cc3)nc(OCC(F)(F)F)n2)cc1)C(=O)O` [Compound 1006, (R)-2-(4-(4-(4-chlorobenzylamino)-6-(2,2,2-trifluoroethoxy)-1,3,5-triazin-2-ylamino)benzamido)-5-guanidinopentanoic acid] was run?
**A.** 10 to 1000 nM

**Q.** For `NC(=O)/N=C(\N1CCCCC1)N1CCN(C(=O)c2ccc(Nc3nc(NC4(c5ccc(Cl)cc5)CC4)nc(OCC(F)(F)F)n3)cc2)CC1` [Compound 1012, 1-((4-(4-(4-(1-(4-chlorophenyl)cyclopropylamino)-6-(2,2,2-trifluoroethoxy)-1,3,5-triazin-2-ylamino)benzoyl)piperazin-1-yl)(piperidin-1-yl)methylene)urea], which EC50 (class symbol) is on record?
**A.** 0.01 to 10 nM

**Q.** With `N=C(N)N1CCCN(C(=O)c2ccc(Nc3nc(NCc4ccc(Cl)cc4)nc(OCc4ccccc4)n3)cc2)CC1` [Compound 1017] as the compound, how does the EC50 (class symbol) read?
**A.** 10 to 1000 nM

**Q.** What does the source list for `N=C(N)NNC(=O)c1ccc(Nc2nc(NCc3ccc(Cl)cc3)nc(OCc3ccccc3)n2)cc1` [Compound 1020]?
**A.** EC50 (class symbol): 10 to 1000 nM; EC50 (numeric value): 175 nM

**Q.** How did the EC50 (class symbol) turn out when `N=C(N)NNC(=O)c1cccc(Nc2nc(NCc3ccc(Cl)cc3)nc(OCc3ccccc3)n2)c1` [Compound 1021] was run?
**A.** > 1000 nM

— patent publication US9655902B2, “Guanidine derivatives for the treatment of hepatitis C” (priority 2013, dated 2017)
